Experimental findings from patent publication US9315498B2, “Arlethynyl derivatives” (Hoffmann-La Roche Inc., priority 2010, dated 2016) are described below.

The assay concerns the target human mGlu5a receptor (Homo sapiens (Human), UniProt P41594). In words: Intracellular Ca2+ mobilization assay (mGlu5 PAM). The class given is cell-based. The following applies: for EC50: HEK-293 cells stably transfected with human mGlu5a, L-glutamate added at EC20 after pre-incubation with test compound, read-out: EC50 (nM) mGlu5PAM; for Emax: maximal response in % of the maximal stimulatory effect obtained with saturating concentrations of L-glutamate, read-out: Eff. (%). The protocol: A monoclonal HEK-293 cell line stably transfected with a cDNA encoding for the human mGlu5a receptor was generated; for the work with mGlu5 Positive Allosteric Modulators (PAMs), a cell line with low receptor expression levels and low constitutive receptor activity was selected to allow the differentiation of agonistic versus PAM activity. Cells were cultured according to standard protocols (Freshney, 2000) in Dulbecco's Modified Eagle Medium with high glucose supplemented with 1 mM glutamine, 10% (vol/vol) heat-inactivated bovine calf serum, Penicillin/Streptomycin, 50 μg/ml hygromycin and 15 μg/ml blasticidin (all cell culture reagents and antibiotics from Invitrogen, Basel, Switzerland).
About 24 hrs before an experiment, 5×10^4 cells/well were seeded in poly-D-lysine coated, black/clear-bottomed 96-well plates. The cells were loaded with 2.5 μM Fluo-4AM in loading buffer (1×HBSS, 20 mM HEPES) for 1 hr at 37° C. and washed five times with loading buffer. The cells were transferred into a Functional Drug Screening System 7000 (Hamamatsu, Paris, France), and 11 half logarithmic serial dilutions of test compound at 37° C. were added and the cells were incubated for 10-30 min. with on-line recording of fluorescence. Following this pre-incubation step, the agonist L-glutamate was added to the cells at a concentration corresponding to EC20 (typically around 80 μM) with on-line recording of fluorescence; in order to account for day-to-day variations in the responsiveness of cells, the EC20 of glutamate was determined immediately ahead of each experiment by recording of a full dose-response curve of glutamate.
Responses were measured as peak increase in fluorescence minus basal (i.e. fluorescence without addition of L-glutamate), normalized to the maximal stimulatory effect obtained with saturating concentrations of L-glutamate. Graphs were plotted with the % maximal stimulatory using XLfit, a curve fitting program that iteratively plots the data using Levenburg Marquardt algorithm. The single site competition analysis equation used was y=A+((B−A)/(1+((x/C)D))), where y is the % maximal stimulatory effect, A is the minimum y, B is the maximum y, C is the EC50, x is the log10 of the concentration of the competing compound and D is the slope of the curve (the Hill Coefficient). From these curves the EC50 (concentration at which half maximal stimulation was achieved), the Hill coefficient as well as the maximal response in % of the maximal stimulatory effect obtained with saturating concentrations of L-glutamate were calculated.
A depression of the signal observed after addition of the EC20 concentration of L-glutamate was indicative of an inhibitory activity of the test compound.

Chain of human mGlu5a receptor (P41594 other isoform, or with tags, fused parts or gaps): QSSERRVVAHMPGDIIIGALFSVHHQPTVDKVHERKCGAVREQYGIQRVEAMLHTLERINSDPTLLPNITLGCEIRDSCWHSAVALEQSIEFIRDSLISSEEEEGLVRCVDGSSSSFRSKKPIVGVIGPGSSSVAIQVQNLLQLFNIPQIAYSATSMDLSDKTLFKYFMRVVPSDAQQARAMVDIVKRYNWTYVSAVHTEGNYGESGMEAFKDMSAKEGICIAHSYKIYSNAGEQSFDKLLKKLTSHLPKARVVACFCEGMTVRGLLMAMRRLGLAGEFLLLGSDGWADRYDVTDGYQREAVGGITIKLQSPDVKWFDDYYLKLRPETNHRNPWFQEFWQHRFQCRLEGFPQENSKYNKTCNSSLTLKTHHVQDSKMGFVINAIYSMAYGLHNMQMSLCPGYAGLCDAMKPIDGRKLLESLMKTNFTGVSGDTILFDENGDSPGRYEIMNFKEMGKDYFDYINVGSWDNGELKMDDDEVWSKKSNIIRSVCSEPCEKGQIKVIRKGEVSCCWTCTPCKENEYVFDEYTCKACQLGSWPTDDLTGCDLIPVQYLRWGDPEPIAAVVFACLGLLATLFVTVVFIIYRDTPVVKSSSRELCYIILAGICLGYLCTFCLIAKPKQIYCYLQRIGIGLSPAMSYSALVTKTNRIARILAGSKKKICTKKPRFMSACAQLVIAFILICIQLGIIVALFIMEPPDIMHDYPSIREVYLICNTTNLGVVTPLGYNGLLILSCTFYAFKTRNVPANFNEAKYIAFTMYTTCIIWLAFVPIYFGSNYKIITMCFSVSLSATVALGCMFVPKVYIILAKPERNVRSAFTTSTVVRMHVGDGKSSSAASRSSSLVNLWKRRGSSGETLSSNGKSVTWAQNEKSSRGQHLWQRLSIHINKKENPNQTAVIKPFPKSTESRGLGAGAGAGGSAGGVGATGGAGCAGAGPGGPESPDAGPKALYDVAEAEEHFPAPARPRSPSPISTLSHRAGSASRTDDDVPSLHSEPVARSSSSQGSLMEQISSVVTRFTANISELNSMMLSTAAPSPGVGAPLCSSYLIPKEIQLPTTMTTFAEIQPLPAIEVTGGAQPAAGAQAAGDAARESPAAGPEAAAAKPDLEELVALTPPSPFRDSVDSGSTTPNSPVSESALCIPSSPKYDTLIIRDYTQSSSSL

A word on the EC50: it is the concentration giving half of the maximal effect. Consider `COC1CN(c2ccc(C#Cc3ccccc3)cn2)C(=O)OC1(C)C` (racemic) [Example 114, (RS)-5-Methoxy-6,6-dimethyl-3-(5-phenylethynyl-pyridin-2-yl)-[1,3]oxazinan-2-one], for which the EC50 was determined as 22 nM and the Emax was 57%.
For the molecule `COC1C(=O)N(c2ncc(C#Cc3ccccc3)cn2)CC1(C)C` (racemic) [Example 127, (RS)-3-Methoxy-4,4-dimethyl-1-(5-phenylethynyl-pyrimidin-2-yl)-pyrrolidin-2-one], the EC50 was determined as 29 nM and the Emax was 94%.
In the case of `COC1C(=O)N(c2ncc(C#Cc3cccc(F)c3)cn2)CC1(C)C` (racemic) [Example 130, (RS)-1-[5-(3-Fluoro-phenylethynyl)-pyrimidin-2-yl]-3-methoxy-4,4-dimethyl-pyrrolidin-2-one], the EC50 was 41 nM and the Emax worked out at 74%.
Consider `CC1CN(c2ncc(C#Cc3ccccc3)cn2)C(=O)OC1(C)C` (racemic) [Example 145, (RS)-5,6,6-Trimethyl-3-(5-phenylethynyl-pyrimidin-2-yl)-[1,3]oxazinan-2-one], for which the EC50 stood at 38 nM and the Emax amounted to 93%.
For `CC1CN(c2ncc(C#Cc3cc(F)ccc3F)cn2)C(=O)OC1(C)C` (racemic) [Example 146, (RS)-3-[5-(2,5-Difluoro-phenylethynyl)-pyrimidin-2-yl]-5,6,6-trimethyl-[1,3]oxazinan-2-one], the EC50 was found to be 69 nM and the Emax was found to be 64%.
The corresponding values for `CC1CN(c2ncc(C#Cc3cccc(F)c3)cn2)C(=O)OC1(C)C` (racemic) [Example 148, (RS)-3-[5-(3-Fluoro-phenylethynyl)-pyrimidin-2-yl]-5,6,6-trimethyl-[1,3]oxazinan-2-one] are 39 nM and 75%.
For `CC1CN(c2ncc(C#Cc3ccc(F)cc3)cn2)C(=O)OC1(C)C` (racemic) [Example 149, (RS)-3-[5-(4-Fluoro-phenylethynyl)-pyrimidin-2-yl]-5,6,6-trimethyl-[1,3]oxazinan-2-one], the EC50 is 114 nM and the Emax is 78%.
The corresponding values for `COC1CN(c2ccc(C#Cc3cccc(F)c3)cn2)C(=O)OC1(C)C` (racemic) [Example 169, (RS)-3-[5-(3-Fluoro-phenylethynyl)-pyridin-2-yl]-5-methoxy-6,6-dimethyl-[1,3]oxazinan-2-one] are 13 nM and 52%.
For `CN1C(=O)N(c2ccc(C#Cc3ccccc3)nn2)[C@@H]2CCC[C@@H]21` (racemic) [Example 170, (3aRS,6aSR)-1-Methyl-3-(6-phenylethynyl-pyridazin-3-yl)-hexahydro-cyclopentaimidazol-2-one] the same measures were 13 nM and 105%.
In the case of `CC1CN(c2ccc(C#Cc3ccccc3)cn2)C(=O)CO1` (racemic) [Example 171, (RS)-6-Methyl-4-(5-phenylethynyl-pyridin-2-yl)-morpholin-3-one], the EC50 came out at 88 nM and the Emax came to 73%.
Take `CN1C(=O)N(c2ccc(C#Cc3cccc(F)c3)nn2)[C@@H]2CCC[C@@H]21` (racemic) [Example 174, (3aSR,6aRS)-1-[6-(3-Fluoro-phenylethynyl)-pyridazin-3-yl]-3-methyl-hexahydro-cyclopentaimidazol-2-one]: the EC50 was found to be 12 nM and the Emax amounted to 56%.
For `COC[C@H]1CN(c2ccc(C#Cc3ccccc3)cn2)C(=O)O1` (single isomer, unassigned) [Example 3, (5R or 5S)-5-Methoxymethyl-3-(5-phenylethynyl-pyridin-2-yl)-oxazolidin-2-one] the same measures were 18 nM and 46%.
The corresponding values for `COC[C@@H]1CN(c2ccc(C#Cc3ccccc3)cn2)C(=O)O1` (single isomer, unassigned) [Example 4, (5S or 5R)-5-Methoxymethyl-3-(5-phenylethynyl-pyridin-2-yl)-oxazolidin-2-one] are 278 nM and 98%.
In the case of `CO[C@@H]1C(=O)N(c2ccc(C#Cc3ccccc3)cn2)CC1(C)C` (single isomer, unassigned) [Example 61], the EC50 turned out to be 75 nM and the Emax turned out to be 70%.
As for `CO[C@H]1C(=O)N(c2ccc(C#Cc3ccccc3)cn2)CC1(C)C` (single isomer, unassigned) [Example 62], the EC50 stood at 12 nM and the Emax worked out at 86%.
`CO[C@@H]1C(=O)N(c2ncc(C#Cc3ccccc3)cn2)CC1(C)C` (single isomer, unassigned) [Example 128]: the EC50 turned out to be 46 nM and the Emax was 54%.
Consider `CO[C@H]1C(=O)N(c2ncc(C#Cc3ccccc3)cn2)CC1(C)C` (single isomer, unassigned) [Example 129], for which the EC50 came out at 18 nM and the Emax was determined as 90%.
As for `CO[C@@H]1C(=O)N(c2ncc(C#Cc3cccc(F)c3)cn2)CC1(C)C` (single isomer, unassigned) [Example 131, (R or S)-1-[5-(3-Fluoro-phenylethynyl)-pyrimidin-2-yl]-3-methoxy-4,4-dimethyl-pyrrolidin-2-one], the EC50 was 35 nM and the Emax is 48%.
`CO[C@H]1C(=O)N(c2ncc(C#Cc3cccc(F)c3)cn2)CC1(C)C` (single isomer, unassigned) [Example 132, (S or R)-1-[5-(3-Fluoro-phenylethynyl)-pyrimidin-2-yl]-3-methoxy-4,4-dimethyl-pyrrolidin-2-one]: the EC50 came out at 21 nM and the Emax worked out at 69%.
For `CO[C@@H]1C(=O)N(c2ncc(C#Cc3cc(F)ccc3F)cn2)CC1(C)C` (single isomer, unassigned) [Example 133, (R or S)-1-[5-(2,5-Difluoro-phenylethynyl)-pyrimidin-2-yl]-3-methoxy-4,4-dimethyl-pyrrolidin-2-one], the EC50 is 57 nM and the Emax was determined as 49%.
Take `CC1(C)CN(c2ncc(C#Cc3ccccc3)cc2F)C(=O)O1` [Example 1, 3-(3-Fluoro-5-phenylethynyl-pyridin-2-yl)-5,5-dimethyl-oxazolidin-2-one]: the EC50 amounted to 30 nM and the Emax came to 68%.
`CC1(C)CN(c2ccc(C#Cc3ccccc3)cn2)C(=O)O1` [Example 5, 5,5-Dimethyl-3-(5-phenylethynyl-pyridin-2-yl)-oxazolidin-2-one]: the EC50 worked out at 7 nM and the Emax is 77%.
On to `CC1(C)CN(c2ccc(C#Cc3cccc(F)c3)cn2)C(=O)O1` [Example 6, 3-[5-(3-Fluoro-phenylethynyl)-pyridin-2-yl]-5,5-dimethyl-oxazolidin-2-one], for which the EC50 is 9 nM and the Emax worked out at 46%.
The corresponding values for `CC1(C)CN(c2ccc(C#Cc3cccnc3)cn2)C(=O)O1` [Example 7, 5,5-Dimethyl-3-(5-pyridin-3-ylethynyl-pyridin-2-yl)-oxazolidin-2-one] are 33 nM and 39%.
Take `O=C1OC2(CC2)CN1c1ccc(C#Cc2ccccc2)cn1` [Example 9, 6-(5-Phenylethynyl-pyridin-2-yl)-4-oxa-6-aza-spiro[2.4]heptan-5-one]: the EC50 turned out to be 15 nM and the Emax stood at 83%.
With `O=C1OC2(CCC2)CN1c1ccc(C#Cc2ccccc2)cn1` [Example 10, 7-(5-Phenylethynyl-pyridin-2-yl)-5-oxa-7-aza-spiro[3.4]octan-6-one], the EC50 was 25 nM and the Emax is 109%.
For the molecule `O=C1OC2(CCCC2)CN1c1ccc(C#Cc2ccccc2)cn1` [Example 11, 3-(5-Phenylethynyl-pyridin-2-yl)-1-oxa-3-aza-spiro[4.4]nonan-2-one], the EC50 came out at 39 nM and the Emax is 52%.
Consider `O=C1OC2(CCCCC2)CN1c1ccc(C#Cc2ccccc2)cn1` [Example 12, 3-(5-Phenylethynyl-pyridin-2-yl)-1-oxa-3-aza-spiro[4.5]decan-2-one], for which the EC50 was found to be 67 nM and the Emax was found to be 80%.
For `CC1(C)CC(=O)N(c2ccc(C#Cc3ccccc3)cn2)C1` [Example 13, 4,4-Dimethyl-1-(5-phenylethynyl-pyridin-2-yl)-pyrrolidin-2-one] the same measures were 37 nM and 129%.
For the molecule `CC1(C)CN(c2ccc(C#Cc3ccccc3)cn2)C(=O)N1` [Example 15, 4,4-Dimethyl-1-(5-phenylethynyl-pyridin-2-yl)-imidazolidin-2-one], the EC50 was 130 nM and the Emax is 101%.
